US7625841B2, “Substituted thiene-3-ylsulphonylamino(thio)carbonyltriazolin(ethi)ones” (Bayer CropScience AG, priority 2001, dated 2009)

Columns and labels:
Assay type in all cases: in vivo
Avena fatua [1] = assay: Pre-emergence test/greenhouse; settings: greenhouse, application rate 15 gai/ha, rated after three weeks, 0%=no effect, 100%=total destruction
Protocol: (§1) • Solvent: 5 parts by weight of acetone • Emulsifier: 1 part by weight of alkylaryl polyglycol ether
(§2) To produce a suitable preparation of active compound, 1 part by weight of active compound is mixed with the stated amount of solvent, the stated amount of emulsifier is added and the concetrate is diluted with water to the desired concentration.
(§3) Seeds of the test plants are sown in normal soil. After 24 hours, the soil is sprayed with the preparation of active compound such that the particular amount of active compound desired is applied per unit area. The concentration of active compound in the spray liquor is chosen such that the particular amount of active compound desired is applied in 1000 litres of water per hectare.
(§4) After three weeks, the degree of damage to the plants is rated in % damage in comparison to the development of the untreated control. The figures denote: • 0%=no effect (like untreated control) • 100%=total destruction

Amaranthus = assay: Pre-emergence test/greenhouse; settings: greenhouse, application rate 15 gai/ha, rated after three weeks, 0%=no effect, 100%=total destruction
Protocol: as §1, §2, §3, §4

wheat = assay: Pre-emergence test/greenhouse; settings: greenhouse, application rate 15 gai/ha, rated after three weeks, 0%=no effect, 100%=total destruction
Protocol: as §1, §2, §3, §4

maize = assay: Pre-emergence test/greenhouse; settings: greenhouse, application rate 15 gai/ha, rated after three weeks, 0%=no effect, 100%=total destruction
Protocol: as §1, §2, §3, §4

Polygonum = assay: Pre-emergence test/greenhouse; settings: greenhouse, application rate 15 gai/ha, rated after three weeks, 0%=no effect, 100%=total destruction
Protocol: as §1, §2, §3, §4

Matricaria = assay: Pre-emergence test/greenhouse; settings: greenhouse, application rate 15 gai/ha, rated after three weeks, 0%=no effect, 100%=total destruction
Protocol: as §1, §2, §3, §4

Digitaria [2] = assay: Pre-emergence test/greenhouse; settings: greenhouse, application rate 15 gai/ha, rated after three weeks, 0%=no effect, 100%=total destruction
Protocol: as §1, §2, §3, §4

Xanthium = assay: Pre-emergence test/greenhouse; settings: greenhouse, application rate 15 gai/ha, rated after three weeks, 0%=no effect, 100%=total destruction
Protocol: as §1, §2, §3, §4

Stellaria = assay: Pre-emergence test/greenhouse; settings: greenhouse, application rate 15 gai/ha, rated after three weeks, 0%=no effect, 100%=total destruction
Protocol: as §1, §2, §3, §4

Galium = assay: Pre-emergence test/greenhouse; settings: greenhouse, application rate 15 gai/ha, rated after three weeks, 0%=no effect, 100%=total destruction
Protocol: as §1, §2, §3, §4

Lolium [3] = assay: Pre-emergence test/greenhouse; settings: greenhouse, application rate 15 gai/ha, rated after three weeks, 0%=no effect, 100%=total destruction
Protocol: as §1, §2, §3, §4

Setaria [4] = assay: Pre-emergence test/greenhouse; settings: greenhouse, application rate 15 gai/ha, rated after three weeks, 0%=no effect, 100%=total destruction
Protocol: as §1, §2, §3, §4

soybeans = assay: Pre-emergence test/greenhouse; settings: greenhouse, application rate 15 gai/ha, rated after three weeks, 0%=no effect, 100%=total destruction
Protocol: as §1, §2, §3, §4

Solanum = assay: Pre-emergence test/greenhouse; settings: greenhouse, application rate 15 gai/ha, rated after three weeks, 0%=no effect, 100%=total destruction
Protocol: as §1, §2, §3, §4

Chenopodium = assay: Pre-emergence test/greenhouse; settings: greenhouse, application rate 15 gai/ha, rated after three weeks, 0%=no effect, 100%=total destruction
Protocol: as §1, §2, §3, §4

[5] = test system: crop plants, such as, for example, maize, soyabean and wheat; assay: Pre-emergence test, summary for crop plants
Protocol: as §1, §2, §3, §4

Alopecurus [6] = assay: Pre-emergence test/greenhouse; settings: greenhouse, application rate 15 gai/ha, rated after three weeks, 0%=no effect, 100%=total destruction
Protocol: as §1, §2, §3, §4

weeds [7] = assay: Pre-emergence test, summary for weeds
Protocol: as §1, §2, §3, §4

weeds [8] = assay: Post-emergence test, summary for weeds
Protocol: as §1
(§5) To produce a suitable preparation of active compound, 1 part by weight of active compound is mixed with the stated amount of solvent, the stated amount of emulsifier is added and the concentrate is diluted with water to the desired concentration.
(§6) Test plants of a height of 5-15 cm are sprayed with the preparation of active compound such that the particular amounts of active compound desired are applied per unit area. The concentration of the spray liquor is chosen such that the particular amounts of active compound desired are applied in 1000 l of water/ha.
(§7) After three weeks, the degree of damage to the plants is rated in % damage in comparison to the development of the untreated control.
(§8) The figures denote: • 0%=no effect (like untreated control) • 100%=total destruction

[9] = test system: crop plants such as, for example, maize, oilseed rape and wheat; assay: Post-emergence test, summary for crop plants
Protocol: as §1, §5, §6, §7, §8

Avena fatua [10] = assay: Post-emergence test/greenhouse; settings: greenhouse, application rate 15 gai/ha, rated after three weeks, 0%=no effect, 100%=total destruction
Protocol: as §1, §5, §6, §7, §8

Digitaria [11] = assay: Post-emergence test/greenhouse; settings: greenhouse, application rate 15 gai/ha, rated after three weeks, 0%=no effect, 100%=total destruction
Protocol: as §1, §5, §6, §7, §8

Bromus [12] = assay: Post-emergence test/greenhouse; settings: greenhouse, application rate 15 gai/ha, rated after three weeks, 0%=no effect, 100%=total destruction
Protocol: as §1, §5, §6, §7, §8

Echinochloa = assay: Post-emergence test/greenhouse; settings: greenhouse, application rate 15 gai/ha, rated after three weeks, 0%=no effect, 100%=total destruction
Protocol: as §1, §5, §6, §7, §8

Lolium [13] = assay: Post-emergence test/greenhouse; settings: greenhouse, application rate 15 gai/ha, rated after three weeks, 0%=no effect, 100%=total destruction
Protocol: as §1, §5, §6, §7, §8

Setaria [14] = assay: Post-emergence test/greenhouse; settings: greenhouse, application rate 15 gai/ha, rated after three weeks, 0%=no effect, 100%=total destruction
Protocol: as §1, §5, §6, §7, §8

Alopecurus [15] = assay: Post-emergence test/greenhouse; settings: greenhouse, application rate 15 gai/ha, rated after three weeks, 0%=no effect, 100%=total destruction
Protocol: as §1, §5, §6, §7, §8

Bromus [16] = assay: Pre-emergence test/greenhouse; settings: greenhouse, application rate 15 gai/ha, rated after three weeks, 0%=no effect, 100%=total destruction
Protocol: as §1, §2, §3, §4

Structure (SMILES)	degree of damage to the plants, Amaranthus (Amaranthus)	degree of damage to the plants, Polygonum (Polygonum)	degree of damage to the plants, Setaria (Setaria [4])	degree of damage to the plants, soybeans (soybeans)	degree of damage to the plants, Solanum (Solanum)	degree of damage to the plants, Chenopodium (Chenopodium)	tolerance by crop plants [5]	degree of damage to the plants, wheat (wheat)	degree of damage to the plants, maize (maize)	degree of damage to the plants, Stellaria (Stellaria)	degree of damage to the plants, Alopecurus (Alopecurus [6])	activity against weeds compared with the known compounds (A) to (G) (weeds [7])	degree of damage to the plants, Lolium (Lolium [3])	degree of damage to the plants, Matricaria (Matricaria)	activity against weeds compared with the known compounds (A) and (B) (weeds [8])	compatibility with crop plants compared with the known compounds (A) and (B) [9]	degree of damage to the plants, Avena fatua (Avena fatua [10])	degree of damage to the plants, Digitaria (Digitaria [11])	degree of damage to the plants, Bromus (Bromus [12])	degree of damage to the plants, Lolium (Lolium [13])	also measured
COC(=O)c1csc(C)c1S(=O)(=O)NC(=O)n1nc(SC)n(C)c1=O [(G), methyl 4-[[[(4,5-dihydro-4-methyl-3-methylthio-5-oxo-1H-1,2,4-triazol-1-yl)carbonyl]amino]sulfonyl]-5-methyl-3-thiophenecarboxylate, reference compound]	40%	70%	70%	50%	80%	50%	–	–	–	–	–	–	–	–	–	–	–	–	–	–	degree of damage to the plants, Avena fatua (Avena fatua [1]): 50%; plant injury at 15 g/ha (wheat; Triticum aestivum, 504 h, read-out: degree of damage to the plants, wheat): 0%; plant injury at 15 g/ha (maize; Zea mays, 504 h, read-out: degree of damage to the plants, maize): 0%; pest or weed control at 15 g/ha (Matricaria; Matricaria, 504 h, read-out: degree of damage to the plants, Matricaria): 70%; degree of damage to the plants, Digitaria (Digitaria [2]): 50%; pest or weed control at 15 g/ha (Xanthium; Xanthium, 504 h, read-out: degree of damage to the plants, Xanthium): 40%; pest or weed control at 15 g/ha (Stellaria; Stellaria, 504 h, read-out: degree of damage to the plants, Stellaria): 80%; degree of damage to the plants, Galium (Galium): 30%; pest or weed control at 15 g/ha (Lolium [3]; Lolium, 504 h, read-out: degree of damage to the plants, Lolium): 60%
COC(=O)c1csc(C)c1S(=O)(=O)NC(=O)n1nc(OCC(F)(F)F)n(C)c1=O [Example 41]	100%	–	95%	–	100%	100%	tolerated well by crop plants	0%	0%	100%	100%	considerably stronger activity against weeds	–	–	–	–	–	–	–	–	–
CCOc1nn(C(=O)NS(=O)(=O)c2c(C(=O)OC)csc2C)c(=O)n1CC [Example 38]	100%	–	95%	0%	100%	95%	tolerated well by crop plants	–	0%	100%	–	considerably stronger activity against weeds	80%	–	–	–	–	–	–	–	–
COCc1nn(C(=O)NS(=O)(=O)c2c(C(=O)OC)csc2C)c(=O)n1C1CC1 [Example 45]	100%	95%	100%	–	–	–	tolerated well by crop plants	–	–	100%	–	considerably stronger activity against weeds	100%	100%	considerably stronger activity against weeds	substantially better compatibility with crop plants	90%	100%	90%	95%	degree of damage to the plants, Avena fatua (Avena fatua [1]): 95%; degree of damage to the plants, Echinochloa (Echinochloa): 100%; degree of damage to the plants, Setaria (Setaria [14]): 90%
CCOn1c(CC)nn(C(=O)NS(=O)(=O)c2c(C(=O)OC)csc2C)c1=O [Example 39]	100%	–	100%	–	95%	–	tolerated well by crop plants	0%	–	100%	–	considerably stronger activity against weeds	95%	–	considerably stronger activity against weeds	substantially better compatibility with crop plants	90%	95%	95%	95%	degree of damage to the plants, Digitaria (Digitaria [2]): 100%; degree of damage to the plants, Echinochloa (Echinochloa): 100%; degree of damage to the plants, Setaria (Setaria [14]): 95%
COC(=O)c1csc(C)c1S(=O)(=O)NC(=O)n1nc(OCC(F)(F)F)n(C2CC2)c1=O [Example 43]	100%	100%	95%	–	–	–	tolerated well by crop plants	–	–	100%	–	considerably stronger activity against weeds	95%	100%	–	–	–	–	–	–	–
COC(=O)c1csc(C)c1S(=O)(=O)NC(=O)n1nc(C)n(C2CC2)c1=O [Example 46]	–	–	–	0%	–	–	tolerated well by crop plants	50%	0%	100%	95%	considerably stronger activity against weeds	90%	100%	considerably stronger activity against weeds	substantially better compatibility with crop plants	80%	90%	–	95%	degree of damage to the plants, Alopecurus (Alopecurus [15]): 80%
CCCc1nn(C(=O)NS(=O)(=O)c2c(C(=O)OC)csc2C)c(=O)n1C [Example 15]	–	90%	–	–	95%	–	tolerated well by crop plants	0%	0%	100%	100%	considerably stronger activity against weeds	95%	–	considerably stronger activity against weeds	substantially better compatibility with crop plants	90%	100%	80%	80%	degree of damage to the plants, Xanthium (Xanthium): 95%; degree of damage to the plants, Bromus (Bromus [16]): 90%; degree of damage to the plants, Echinochloa (Echinochloa): 90%; degree of damage to the plants, Setaria (Setaria [14]): 90%; degree of damage to the plants, Alopecurus (Alopecurus [15]): 95%
